This is an account of results in ChEMBL document CHEMBL5518207, “Structure Guided Discovery of Novel Pan Metallo-β-Lactamase Inhibitors with Improved Gram-Negative Bacterial Cell Penetration” (J Med Chem, 2024).

The subject of one series is Escherichia coli. The series is described as follows: Potentiation of imipenem induced antibacterial activity against Escherichia coli CLB30005 harbouring NDM-1 incubated for 18 to 22 hrs in presence of imipenem by spectrophotometer based analysis. The class given is functional. The conditions noted are these: time 18-22 hrs.
In series [1] the test system is Pseudomonas aeruginosa. The series is described as follows: Potentiation of imipenem induced antibacterial activity against isogenic efflux wild type Pseudomonas aeruginosa MB9798 harbouring IMP incubated for 18 to 22 hrs imipenem and beta lactamase inhibitor by spectrophotometer based analysis. Particulars: time 18-22 hrs. Format: functional.
Series [2] is described as follows: Inhibition of GST tagged NDM-1 (unknown origin) expressed in Escherichia coli BL21 Star (DE3) competent cells using CCF2-FA as substrate incubated for 2 hrs by fluorescence based analysis.
Series [3] relates to Pseudomonas aeruginosa. The series is described as follows: Potentiation of imipenem induced antibacterial activity against isogenic efflux deleted mutant Pseudomonas aeruginosa MB9799 harbouring IMP incubated for 18 to 22 hrs imipenem and beta lactamase inhibitor by spectrophotometer based analysis. Format: functional. Particulars: time 18-22 hrs.
The subject of series [4] is Pseudomonas aeruginosa. Put plainly: Efflux ratio of MITC95 for potentiation of imipenem induced antibacterial activity against isogenic efflux wild type Pseudomonas aeruginosa MB9798 harbouring IMP to MITC95 for potentiation of imipenem induced antibacterial activity against isogenic efflux deleted mutant Pseudomonas aeruginosa MB9799 harbouring IMP. The class given is functional.

A further series concerns Klebsiella pneumoniae. Put plainly: Potentiation of imipenem induced antibacterial activity against Klebsiella pneumoniae IHMA599644 harbouring VIM-1 incubated for 18 to 22 hrs imipenem by spectrophotometer based analysis. Format: functional. Particulars: time 18-22 hrs.
Series [5] in a line: Cmax in Wistar rat at 5 mg/kg, iv administered as bolus dose measured after 24 hrs by HPLC-MS analysis. Format: ADME, organism-based. The conditions noted are these: in vivo.
The nature of series [6]: Inhibition of GST tagged VIM-1 (unknown origin) expressed in Escherichia coli BL21 Star (DE3) competent cells using CCF2-FA as substrate incubated for 2 hrs by fluorescence based analysis.
In the next series the test system is Serratia marcescens. The series is described as follows: Potentiation of imipenem induced antibacterial activity against Serratia marcescens CL5741 harbouring IMP-1 incubated for 18 to 22 hrs imipenem by spectrophotometer based analysis. Particulars: time 18-22 hrs. Format: functional.
A short description of series [7]: Inhibition of GST tagged IMP-1 (unknown origin) expressed in Escherichia coli BL21 Star (DE3) competent cells using CCF2-FA as substrate incubated for 2 hrs by fluorescence based analysis.
The nature of series [8]: MRT in rat at 1 mg/kg, iv measured after 24 hrs by HPLC-MS analysis. Format: ADME, organism-based. Particulars: in vivo.
Series [9] in a line: Inhibition of GST tagged VIM-2 (unknown origin) expressed in Escherichia coli BL21 Star (DE3) competent cells using CCF2-FA as substrate incubated for 2 hrs by fluorescence based analysis.
The nature of series [10]: Cmax in Wistar rat at 90 mg/kg, iv measured after 24 hrs by HPLC-MS analysis. The conditions noted are these: in vivo. The class given is ADME, organism-based.
Series [11] can be described thus: Cmax in rat at 1 mg/kg, iv measured after 24 hrs by HPLC-MS analysis. The class given is ADME, organism-based. Particulars: in vivo.
Series [12] is described as follows: AUC in rat at 1 mg/kg, iv measured after 24 hrs by HPLC-MS analysis. Format: ADME, organism-based. The conditions noted are these: in vivo.
The nature of series [13]: Volume of distribution at steady state in rat at 1 mg/kg, iv measured after 24 hrs by HPLC-MS analysis. Particulars: in vivo, read-out: Vdss. Format: ADME, organism-based.
A short description of series [14]: Clearance in rat at 1 mg/kg, iv measured after 24 hrs by HPLC-MS analysis. The conditions noted are these: in vivo. Format: ADME, organism-based.
The nature of series [15]: Unbound fraction in rat plasma at 1 mg/kg, iv measured after 24 hrs by HPLC-MS analysis. Format: ADME, organism-based.

Each structure is given as a SMILES string.

For `NS(=O)(=O)c1c(CC2CNC2)ccc(-c2ccc(C3CCNCC3)cc2)c1-c1nn[nH]n1`, the MITC95 with Escherichia coli was determined as 0.8 µM; in the series on Pseudomonas aeruginosa [1], 3.1 µM; with Pseudomonas aeruginosa [3] it was 0.8 µM; in the series with Klebsiella pneumoniae it was 1.6 µM; in the series with Serratia marcescens, 1.6 µM. Moreover, the concentration for half-maximal inhibition (IC50) in series [2] stood at 11 nM; in [6], 7 nM; in [7], 26 nM. For the same compound, the Ratio in the series on Pseudomonas aeruginosa [4] was 4. This compound also yielded a maximum concentration (Cmax) in series [5] of 45 µM.

Take `Nc1ccc(-c2ccc(CC3CCNCC3)c(S(N)(=O)=O)c2-c2nn[nH]n2)cn1`: the MITC95 in the series on Escherichia coli was found to be 0.6 µM; in the series on Pseudomonas aeruginosa [1], 50 µM; with Pseudomonas aeruginosa [3], 12.5 µM; with Klebsiella pneumoniae, 4.2 µM; with Serratia marcescens, 6.3 µM. In addition, in series [8], the MRT is 1.21 h. Also, the IC50 in [9] stood at 140 nM; in [2] it was 12 nM; in [6], 25 nM; in series [7], 164 nM. Moreover, the Cmax was 791 µM in series [10] and 16.3 µM in series [11]. For the same compound, the Ratio in the series on Pseudomonas aeruginosa [4] is recorded as 4. Also, the exposure (AUC) at 24 h in series [12] worked out at 11.7 µM·h. For the same compound, in series [13], the Vd stood at 0.25 L/kg. The clearance in series [14] stood at 3.5 mL/min/kg. The same compound yielded a fraction unbound at 24 h in series [15] of 0.47.
